Values of other authors as cited in patent US8772510B2, “PDE10 modulators” (Hoffmann-La Roche Inc., priority 2011, dated 2014).

Target: PDE10A (Rattus norvegicus (Rat), UniProt Q9QYJ6)
Details: rats, sub-chronic treatment with PCP; Rodefer et al. 2005

Chain of PDE10A (Q9QYJ6 whole entry): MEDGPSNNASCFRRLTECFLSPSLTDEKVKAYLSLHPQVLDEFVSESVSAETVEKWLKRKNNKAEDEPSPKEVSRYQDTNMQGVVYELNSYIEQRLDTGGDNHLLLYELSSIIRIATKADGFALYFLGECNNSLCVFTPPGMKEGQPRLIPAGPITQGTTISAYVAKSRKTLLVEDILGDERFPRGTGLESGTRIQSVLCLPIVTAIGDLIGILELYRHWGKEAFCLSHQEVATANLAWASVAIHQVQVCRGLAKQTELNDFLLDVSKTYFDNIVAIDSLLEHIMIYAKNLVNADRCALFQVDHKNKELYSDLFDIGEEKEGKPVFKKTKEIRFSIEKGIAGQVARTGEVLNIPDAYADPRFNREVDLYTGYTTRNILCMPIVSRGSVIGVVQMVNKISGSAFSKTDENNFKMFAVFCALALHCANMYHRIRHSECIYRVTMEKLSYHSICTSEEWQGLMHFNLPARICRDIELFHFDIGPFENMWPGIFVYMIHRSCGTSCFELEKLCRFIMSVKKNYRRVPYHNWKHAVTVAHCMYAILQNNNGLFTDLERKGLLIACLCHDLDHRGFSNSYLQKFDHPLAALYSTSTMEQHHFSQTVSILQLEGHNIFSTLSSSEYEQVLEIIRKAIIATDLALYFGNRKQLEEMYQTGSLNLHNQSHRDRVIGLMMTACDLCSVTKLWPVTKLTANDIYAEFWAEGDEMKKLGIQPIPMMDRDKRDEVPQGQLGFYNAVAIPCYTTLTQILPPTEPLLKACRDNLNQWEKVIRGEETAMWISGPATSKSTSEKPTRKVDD

COc1ccc(Cc2nccc3cc(OC)c(OC)cc23)cc1OC [papaverine, Papaverine]
deficits in extra-dimensional shift learning: attenuate the deficits in the extra-dimensional shift learning
